Experimental data reported in patent publication US20020010182A1, “Piperazine derivatives as tachykinin antagonists” (FUJISAWA PHARMACEUTICAL CO., LTD., priority 1995, published 2002).

Assays:
h-NK1 receptors = target: T1, h-NK1 receptors (Homo sapiens, UniProt P25103); test: Evaluation of NK1 antagonist transport efficiency to the central nervous system using a h-NK1 receptor binding assay; conditions: 5 min, brain extract of male SD rats 5 min after i.v. injection of test compound, CHO cell membranes expressing h-NK1, read-out: inhibition rate of 125I-BH-Substance P binding to h-NK1 receptors
T1 construct: expressed in transfected cells; host or cells: CHO cells (permanent expression), crude cell membranes
Procedure: A. Evaluation of NK1 Antagonist Transport Efficiency to the Cental Nervous System Using a h-NK1 Receptor Binding Assay
(1) Administration of Test Compound and Extraction of the Compound From Brain
Male SD rats were given an i.v. injection of a solution containing a test compound (1 mg/kg). 5 Min later the animals were anesthetized by ether, bled and perfused through the aorta ascendens with 20 ml of saline. The brain was rapidly removed, weighed and homogenized in 4 vol. ice-cold distilled water by using Polytoron (KINEMATICA). To extract the test compound, 500 μl of the homogenate, 100 μl of methanol, 500 μl of 0.1 N NaOH and 4 ml of ethyl acetate were mixed by shaking for 10 min at room temperature. The organic phase (2.5 ml) was recovered by centrifugation at 3,000 rpm for 10 min, dried and dissolved in dimethyl sulfoxide.
(2) h-NK1 Receptor Binding Assay
(a) Crude CHO Cell Membrane Preparation
CHO cells permanently expressing h-NK1 receptors were harvested and homogenized with a Dounce homogenizer at 4° C. in a buffer (0.25 M sucrose, 25 mM Tris-HCl (pH 7.4), 10 mM MgCl2, 1 mM EDTA, 5 μg/ml p-APMSF). The homogenate was centrifuged (500×g, 10 min), and the pellet was resuspended in the same buffer, homogenized, and centrifuged. The two supernatants were combined and centrifuged (100,000×g, 1 hour). The crude cell membranes thus isolated were resuspended in a buffer (25 MM Tris-HCl (pH 7.4), 10 mM MgCl2, 1 mM EDTA, 5 μg/ml p-APMSF) and stored at −80° C. until use.
(b) ^125I-BH-Substance P Binding to the Prepared Membrane
Cell membranes (6 μg/ml) were incubated with ^125I-BH-Substance P (0.1 nM) with or without the extracted compounds in 0.25 ml of a medium (50 mM Tris-HCl (pH 7.4), 5 mM MnCl2, 20 μg/ml chymrostatin, 40 μg/ml bacitracin, 4 μg/ml leupeptin, 5 μg/ml p-APMSF, 200 μg/ml BSA) at 22° C. for 90 min. At the end of the incubation period, the contents were quickly filtered through a Blue Mat 11740 filter (pretreated with 0.1% polyethylenimine for 3 hours prior to use) by using SKATRON Cell Harvester. The filter was then washed with a washing buffer (50 mM Tris-HCl (pH 7.4), 5 mM MnCl2) . The radioactivity was counted by using an auto gamma counter (Packard RIASTAR 5420A). All data presented are specific binding defined as that displaceable by 3 μM unlabeled Substance P.

emesis in the ferret = test: Emesis in the ferret (copper sulfate induced); format: in vivo; conditions: i.p. dose of 3.2 and/or 10 mg/kg, 30 min before intra-gastric copper sulfate (40 mg/kg/ml); retching and vomiting observed for 30 min
Procedure: Individually housed adult male ferrets (Marshall Farms, 1.4 to 2.2 kg) were given an i.p. injection of a solution containing a test compound 30 Min later the emetic responses (retching and vomiting) were induced by administration of intra-gastric copper sulfate (40 mg/kg/ml) and observed for the next 30 min. The timing and number of retches and vomits observed were recorded for each animal. An individual animal was tested with at least 10 days between experiments.

T1 sequence (P25103 whole entry): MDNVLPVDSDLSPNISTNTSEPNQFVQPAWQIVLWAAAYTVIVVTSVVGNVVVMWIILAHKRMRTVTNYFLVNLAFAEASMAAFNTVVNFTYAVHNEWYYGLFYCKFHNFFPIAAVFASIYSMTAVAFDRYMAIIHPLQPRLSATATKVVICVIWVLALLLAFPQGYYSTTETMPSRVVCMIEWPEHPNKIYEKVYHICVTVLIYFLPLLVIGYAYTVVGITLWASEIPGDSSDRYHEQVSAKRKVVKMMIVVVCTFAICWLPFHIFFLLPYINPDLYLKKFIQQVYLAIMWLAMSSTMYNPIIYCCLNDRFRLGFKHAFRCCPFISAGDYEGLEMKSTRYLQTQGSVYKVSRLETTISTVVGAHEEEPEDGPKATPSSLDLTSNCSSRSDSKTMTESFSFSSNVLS

Row | Compound | inhibition at 1 mg/kg (h-NK1 receptors) [%] | inhibition rate of emesis in the ferret (emesis in the ferret) [%] | melting point
1 | CC(=O)c1ccc(C(=O)N2CCN(C(=O)c3cc(C(F)(F)F)cc(C(F)(F)F)c3)[C@H](Cc3ccc(Cl)c(Cl)c3)C2)cc1 [Example 12, (2R)-4-(4-acetylbenzoyl)-1-[3,5-bis (trifluoromethyl)benzoyl]-2-(3,4-dichlorobenzyl)piperazine] | > 80 | 100 | 
2 | Cc1ccc(C[C@@H]2CN(CCN3CCOCC3)CCN2C(=O)c2cc(C(F)(F)F)cc(C(F)(F)F)c2)cc1C.Cl.Cl [37-(5), (2R)-4-(2-Morpholinoethyl)-1-[3,5-bis(trifluoromethyl)benzoyl]-2-(3,4-dimethylbenzyl)piperazine dihydrocloride] |  | 100 | 
3 | Cl.Cl.O=C(c1cc(C(F)(F)F)cc(C(F)(F)F)c1)N1CCN(CCCN2CCSCC2)C[C@H]1Cc1c[nH]c2ccccc12 [Example 23, (2R)-1-[3,5-bis(trifluoromethyl)benzoyl]-2-(1H-indol-3-ylmethyl)-4-(3-thiomorpholinopropyl) piperazine dihydrochloride] | > 80 | 100 | 
4 | Cc1ccc(C[C@@H]2CN(CCCN3CCSCC3)CCN2C(=O)c2cc(C(F)(F)F)cc(C(F)(F)F)c2)cc1C.Cl.Cl [24-(2), (2R)-1-[3,5-Bis(trifluoromethyl)benzoyl]-2-(3,4-dimethylbenzyl)-4-(3-thiomorpholinopropyl) piperazine dihydrochloride] | > 80 | 100 | 272 °C (dec.)
5 | Cl.Cl.O=C(c1cc(C(F)(F)F)cc(C(F)(F)F)c1)N1CCN(CCN2CCSCC2)C[C@H]1Cc1c[nH]c2ccccc12 [Example 37-(6), (2R)-4-(2-Thiomorpholinoethyl)-1-[3,5-bis (trifluoromethyl)benzoyl]-2-(1H-indol-3-ylmethyl) piperazine dihydrochloride] | > 80 | 100 | 170 to 182 °C
6 | COCCN(C)CCN1CCN(C(=O)c2cc(C(F)(F)F)cc(C(F)(F)F)c2)[C@H](Cc2ccc(C)c(C)c2)C1.Cl.Cl [Example 67-(13), (2R)-1-[3,5-Bis(trifluoromethyl)benzoyl]-2-(3,4-dimethylbenzyl)-4-[2-[N-(2-methoxyethyl) -N-methylamino]ethyl]piperazine dihydrochloride] | > 80 |  | 222 °C (dec.)
7 | Cl.Cl.O=C(c1cc(C(F)(F)F)cc(C(F)(F)F)c1)N1CCN(CCCN2CC3CCC(CC3)C2)C[C@H]1Cc1c[nH]c2ccccc12 [Example 22, (2R)-4-[3-(3-azabicyclo(3.2.2]non-3-yl)propyl]-1-[3,5-bis(trifluoromethyl)benzoyl]-2-(1H-indol-3-ylmethyl) piperazine dihydrochloride] | > 80 | 100 | 194 to 202 °C
8 | Cc1ccc(C[C@@H]2CN(CCN3CCSCC3)CCN2C(=O)c2cc(C(F)(F)F)cc(C(F)(F)F)c2)cc1C.Cl.Cl [Example 37-(8), (2R)-4-(2-Thiomorpholinoethyl)-1-[3,5-bis (trifluoromethyl)benzoyl]-2-(3,4-dimethylbenzyl) piperazine dihydrochloride] | > 80 |  | 261.5 °C
9 | Cc1ccc(C[C@@H]2CN(CC#CCN3CCOCC3(C)C)CCN2C(=O)c2cc(C(F)(F)F)cc(C(F)(F)F)c2)cc1C.Cl.Cl [Example 59-(3), (2R)-1-[3,5-Bis(trifluoromethyl)benzoyl]-2-(3,4-dimethylbenzyl)-4-[4-(3,3-dimethylmorpholino)-2-butynyl]piperazine dihydrochloride] | > 80 |  | 180 to 190 °C
